Experimental data from patent US7101878B1 (Agouron Pharmaceuticals, Inc., priority 1998, dated 2006).
Where two headings read alike, the source gives them in different places.

Target: T1, mouse GnRH receptor (Mus musculus, UniProt Q01776)
T1 construct: expressed in transfected cells; host or cells: 293 cells
T1 sequence (Q01776 1-327): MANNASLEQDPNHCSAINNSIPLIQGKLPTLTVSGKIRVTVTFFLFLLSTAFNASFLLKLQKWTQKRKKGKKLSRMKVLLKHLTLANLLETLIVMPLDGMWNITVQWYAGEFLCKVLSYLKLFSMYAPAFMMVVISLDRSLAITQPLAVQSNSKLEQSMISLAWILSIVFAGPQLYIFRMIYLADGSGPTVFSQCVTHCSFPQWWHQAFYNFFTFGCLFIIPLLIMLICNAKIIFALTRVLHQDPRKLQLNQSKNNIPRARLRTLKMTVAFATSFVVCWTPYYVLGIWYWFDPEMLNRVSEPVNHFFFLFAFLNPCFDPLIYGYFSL
Assay: Radioligand binding, 125I-GnRH-A, 293 cells expressing mouse GnRH receptors
Details: for remaining activity at 10 µM: 1 h, substrate remaining, 10 uM compound, closer to zero = closer to 100% inhibition, read-out: S%R 10 uM mGnRHR; for inhibition at 10 µM: read-out: % Inhib. @ 10 uM mGnRH
Method in brief: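 Bound label captured on 0.1% polyethyleneimine-treated GF/C filters, washed three times with PBS, counted. IC50 derived; identical set-up for every species.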

SMILES | remaining activity at 10 µM | inhibition at 10 µM (10 uM) | further results
CCOC(=O)N1CCN(C(=O)c2ccc(Cc3cc4c(cc3C)C(C)(C)CCC4(C)C)o2)CC1 [Compound 628] | 35% | – | –
CCOC(CN(Cc1ccncc1)C(=O)c1ccc(Cc2cc3c(cc2C)C(C)(C)CCC3(C)C)o1)OCC | – | 31% | –
Cc1cc2c(cc1Cc1ccc(C(=O)N(CCC#N)Cc3cccnc3)o1)C(C)(C)CCC2(C)C [drawing 1473] | – | 91% | –
CCC1CCC(C)N(C(=O)c2ccc(Cc3cc4c(cc3C)C(C)(C)CCC4(C)C)o2)C1 (stereo not shown) | – | 95% | –
CSc1ccc(CN(CCc2ccccn2)C(=O)c2ccc(Cc3cc4c(cc3C)C(C)(C)CCC4(C)C)o2)cc1 | – | 75% | –
Cc1cc2c(cc1Cc1ccc(C(=O)N(Cc3cccnc3)Cc3ccco3)o1)C(C)(C)CCC2(C)C [drawing 1535] | – | 89% | –
CCN(CCCCO)C(=O)c1ccc(Cc2cc3c(cc2C)C(C)(C)CCC3(C)C)o1 | – | 94% | –
Cc1cc2c(cc1Cc1ccc(C(=O)NCCCCNc3nccc(NCC4CCCO4)n3)o1)C(C)(C)CCC2(C)C (stereo not shown) [Compound 487] | 3% | – | –
Cc1cc2c(cc1Cc1ccc(C(=O)NCC3CCNCC3)o1)C(C)(C)CCC2(C)C [Compound 483] | 10% | – | –
Cc1cc2c(cc1Cc1ccc(C(=O)NCCc3cccc(C(F)(F)F)c3)o1)C(C)(C)CCC2(C)C [Compound 526] | 9% | – | –
Cc1cc2c(cc1Cc1ccc(C(=O)NCC(=O)Nc3ccc([N+](=O)[O-])cc3)o1)C(C)(C)CCC2(C)C [Compound 464] | 7% | – | –
Cc1cc2c(cc1Cc1ccc(C(=O)N(CCc3ccccc3)Cc3ccoc3)o1)C(C)(C)CCC2(C)C [Compound 667] | 39% | – | –
Cc1cc2c(cc1Cc1ccc(C(=O)NC3CCCCC3C3CCCCC3)o1)C(C)(C)CCC2(C)C (stereo not shown) | – | 13% | –
Cc1cc2c(cc1Cc1ccc(C(=O)N(Cc3ccco3)C3CC(=O)N(C)C3=O)o1)C(C)(C)CCC2(C)C (stereo not shown) [Compound 606] | 32% | – | –
Cc1cc2c(cc1Cc1ccc(C(=O)N3CCC(C(=O)c4ccccc4)CC3)o1)C(C)(C)CCC2(C)C [Compound 542] | 42% | – | –
Cc1cc2c(cc1Cc1ccc(C(=O)N3CCc4ccccc4C3Cc3ccccc3)o1)C(C)(C)CCC2(C)C (stereo not shown) [Compound 677] | 54% | – | –
CCOC(=O)CC(C)NC(=O)c1ccc(Cc2cc3c(cc2C)C(C)(C)CCC3(C)C)o1 (stereo not shown) | – | 88% | –
COc1ccccc1CN(C(=O)c1ccc(Cc2cc3c(cc2C)C(C)(C)CCC3(C)C)o1)C1CCN(Cc2ccccc2)C1 (stereo not shown) [Compound 674] | 10% | – | –
Cc1cc2c(cc1Cc1ccc(C(=O)NCCC(C)C)o1)C(C)(C)CCC2(C)C | – | 88% | –
Cc1cc2c(cc1Cc1ccc(C(=O)N3CCC4(CC3)OCCCO4)o1)C(C)(C)CCC2(C)C | – | – | inhibition at 10 µM: 99%
COc1cc(CNC(=O)c2ccc(Cc3cc4c(cc3C)C(C)(C)CCC4(C)C)o2)cc(OC)c1 [Compound 490] | 4% | – | –
Cc1cc2c(cc1Cc1ccc(C(=O)NCCn3c([N+](=O)[O-])cnc3C)o1)C(C)(C)CCC2(C)C [Compound 552] | 58% | – | –
CCCN(CC1CC1)C(=O)c1ccc(Cc2cc3c(cc2C)C(C)(C)CCC3(C)C)o1 | – | 96% | –

SMILES | remaining activity at 10 µM | inhibition at 10 µM (10 uM) | further results
Cc1cc2c(cc1Cc1ccc(C(=O)N(Cc3cccnc3)Cc3ccc(Cl)c(Cl)c3)o1)C(C)(C)CCC2(C)C | – | 79% | –
COc1ccc(CCNC(=O)c2ccc(Cc3cc4c(cc3C)C(C)(C)CCC4(C)C)o2)cc1Br [Compound 643] | 23% | – | –
CCCCN(C)C(=O)c1ccc(Cc2cc3c(cc2C)C(C)(C)CCC3(C)C)o1 [Compound 680] | 0% | – | –
CCOC(=O)CN1CCN(C(=O)c2ccc(Cc3cc4c(cc3C)C(C)(C)CCC4(C)C)o2)CC1 | – | 66% | –
Cc1cc2c(cc1Cc1ccc(C(=O)NCC3CCCCC3)o1)C(C)(C)CCC2(C)C [drawing 1302] | – | 72% | –
Cc1cc2c(cc1Cc1ccc(C(=O)NC3CCC3)o1)C(C)(C)CCC2(C)C [Compound 572] | 41% | – | –
Cc1cc2c(cc1Cc1ccc(C(=O)N3CCN(C(=O)c4ccco4)CC3)o1)C(C)(C)CCC2(C)C [drawing 1264] | – | 89% | –
CC(=O)N1CCN(C(=O)c2ccc(Cc3cc4c(cc3C)C(C)(C)CCC4(C)C)o2)CC1 [Compound 577] | 30% | – | –
Cc1cc2c(cc1Cc1ccc(C(=O)N(C)CC(O)c3ccc(O)cc3)o1)C(C)(C)CCC2(C)C (stereo not shown) | – | 34% | –
Cc1cc2c(cc1Cc1ccc(C(=O)N(CCCN3CCN(C)CC3)Cc3ccc(OCCCN(C)C)cc3)o1)C(C)(C)CCC2(C)C | – | 100% | –
Cc1cc2c(cc1Cc1ccc(C(=O)NCCO)o1)C(C)(C)CCC2(C)C [drawing 1527] | – | 53% | –
Cc1cc2c(cc1Cc1ccc(C(=O)N3CCCC(C)(C)C3)o1)C(C)(C)CCC2(C)C [drawing 1523] | – | 98% | –
Cc1cc2c(cc1Cc1ccc(C(=O)NCc3ccc(F)cc3)o1)C(C)(C)CCC2(C)C [drawing 1482] | – | 97% | –
Cc1cc2c(cc1Cc1ccc(C(=O)N(CCc3ccccn3)Cc3ccccc3)o1)C(C)(C)CCC2(C)C [drawing 1459] | – | 76% | –
Cc1cc2c(cc1Cc1ccc(C(=O)NCCNCCN3CCOCC3)o1)C(C)(C)CCC2(C)C [Compound 465] | 32% | – | –
Cc1cc2c(cc1Cc1ccc(C(=O)N(Cc3cccc4ccccc34)C3CCN(Cc4ccccc4)C3)o1)C(C)(C)CCC2(C)C (stereo not shown) [drawing 1563] | – | 57% | –
COC(OC)C(C)NC(=O)c1ccc(Cc2cc3c(cc2C)C(C)(C)CCC3(C)C)o1 (stereo not shown) [Compound 662] | 3% | – | –
Cc1cccc(N2CCN(C(=O)c3ccc(Cc4cc5c(cc4C)C(C)(C)CCC5(C)C)o3)CC2C)c1 (stereo not shown) [Compound 635] | 27% | – | –
Cc1cc2c(cc1Cc1ccc(C(=O)NCCCNCCCCNCCCN)o1)C(C)(C)CCC2(C)C [Compound 472] | 42% | – | –
Cc1cc2c(cc1Cc1ccc(C(=O)N3CCCC4CCCCC43)o1)C(C)(C)CCC2(C)C (stereo not shown) | – | 94% | –
Cc1cc2c(cc1Cc1ccc(C(=O)NC3CCC(c4nccc(NCC5CCCO5)n4)C3)o1)C(C)(C)CCC2(C)C (stereo not shown) [Compound 486] | 33% | – | –
C=CCN(C(=O)c1ccc(Cc2cc3c(cc2C)C(C)(C)CCC3(C)C)o1)C1CCCCC1 | – | 65% | –
COC(=O)C1CCCN1C(=O)c1ccc(Cc2cc3c(cc2C)C(C)(C)CCC3(C)C)o1 (stereo not shown) [drawing 1298] | – | 97% | –

SMILES | remaining activity at 10 µM | inhibition at 10 µM (10 uM) | further results
Cc1cc2c(cc1Cc1ccc(C(=O)N3CCC(O)(c4ccc(Br)cc4)CC3)o1)C(C)(C)CCC2(C)C [drawing 1512] | – | 49% | –
COc1cccc(N2CCN(C(=O)c3ccc(Cc4cc5c(cc4C)C(C)(C)CCC5(C)C)o3)CC2)c1 [drawing 1497] | – | 67% | –
Cc1cc2c(cc1Cc1ccc(C(=O)N3CCN(Cc4ccc(C(C)(C)C)cc4)CC3)o1)C(C)(C)CCC2(C)C [drawing 1534] | – | 65% | –
Cc1cc2c(cc1Cc1ccc(C(=O)NCc3ccc4c(c3)OCO4)o1)C(C)(C)CCC2(C)C [Compound 484] | -1% | – | –
Cc1cc2c(cc1Cc1ccc(C(=O)N3CCC(O)(c4ccc(Cl)cc4)CC3)o1)C(C)(C)CCC2(C)C [drawing 1423] | – | 43% | –
Cc1cc2c(cc1Cc1ccc(C(=O)NC3CCCCC3Nc3nccc(NCC4CCCO4)n3)o1)C(C)(C)CCC2(C)C (stereo not shown) [Compound 466] | 30% | – | –
Cc1ccc(CN(CCc2ccc(Cl)cc2Cl)C(=O)c2ccc(Cc3cc4c(cc3C)C(C)(C)CCC4(C)C)o2)cc1 | – | 23% | –
Cc1cc2c(cc1Cc1ccc(C(=O)N(Cc3cccnc3)Cc3cccc(C(F)(F)F)c3)o1)C(C)(C)CCC2(C)C [drawing 1475] | – | 80% | –
Cc1cc2c(cc1Cc1ccc(C(=O)NC(C)CN(C)C)o1)C(C)(C)CCC2(C)C (stereo not shown) [drawing 1584] | – | 92% | –
Cc1cc2c(cc1Cc1ccc(C(=O)N3CCN(Cc4ccccc4)CC3)o1)C(C)(C)CCC2(C)C | – | 83% | –
Cc1cc2c(cc1Cc1ccc(C(=O)N(Cc3ccco3)C3CCN(Cc4ccccc4)C3)o1)C(C)(C)CCC2(C)C (stereo not shown) [Compound 681] | 6% | – | –
Cc1cc2c(cc1Cc1ccc(C(=O)NC(CO)CC(C)C)o1)C(C)(C)CCC2(C)C (stereo not shown) [Compound 706] | 3% | – | –
CCN1CC(N(Cc2ccccc2C#N)C(=O)c2ccc(Cc3cc4c(cc3C)C(C)(C)CCC4(C)C)o2)CN1CC [Compound 646] | 0% | – | –
Cc1cc2c(cc1Cc1ccc(C(=O)N(Cc3ccsc3)C3CCN(Cc4ccccc4)C3)o1)C(C)(C)CCC2(C)C (stereo not shown) [drawing 1560] | – | 91% | –
Cc1cc2c(cc1Cc1ccc(C(=O)N(Cc3cccnc3)Cc3ccccc3F)o1)C(C)(C)CCC2(C)C [Compound 703] | 5% | – | –
Cc1cc2c(cc1Cc1ccc(C(=O)NCCN3CCNC3=O)o1)C(C)(C)CCC2(C)C [Compound 520] | -3% | – | –
CCSCCNC(=O)c1ccc(Cc2cc3c(cc2C)C(C)(C)CCC3(C)C)o1 [Compound 655] | 2% | – | –
Cc1cc2c(cc1Cc1ccc(C(=O)N(Cc3ccc(O)cc3)C3CCN(Cc4ccccc4)CC3)o1)C(C)(C)CCC2(C)C | – | 28% | –
Cc1cc2c(cc1Cc1ccc(C(=O)NCCc3ccc4c(c3)OCO4)o1)C(C)(C)CCC2(C)C [Compound 467] | -1% | – | –
Cc1cc2c(cc1Cc1ccc(C(=O)N(Cc3cccnc3)CC(C)c3ccccc3)o1)C(C)(C)CCC2(C)C (stereo not shown) | – | 97% | –
Cc1cc2c(cc1Cc1ccc(C(=O)NC(C)(C)C)o1)C(C)(C)CCC2(C)C [drawing 1450] | – | 72% | –
